Measurements taken from ChEMBL document CHEMBL5727227, “N-((het) arylmethyl)-heteroaryl-carboxamides compounds as plasma kallikrein inhibitors” (2019).

Target: Plasma kallikrein (Homo sapiens, UniProt P03952)
Assay: Inhibitory Activity In Vitro Assay : Plasma kallikrein inhibitory activity in vitro was determined using standard published methods. Human plasma kallikrein (Protogen) was incubated at 25° C. with the fluorogenic substrate H-DPro-Phe-Arg-AFC and various concentrations of the test compound. Residual enzyme activity (initial rate of reaction) was determined by measuring the change in […] and the IC50 value for the test compound was determined.

Sequence of Plasma kallikrein (P03952 20-390 limits assumed): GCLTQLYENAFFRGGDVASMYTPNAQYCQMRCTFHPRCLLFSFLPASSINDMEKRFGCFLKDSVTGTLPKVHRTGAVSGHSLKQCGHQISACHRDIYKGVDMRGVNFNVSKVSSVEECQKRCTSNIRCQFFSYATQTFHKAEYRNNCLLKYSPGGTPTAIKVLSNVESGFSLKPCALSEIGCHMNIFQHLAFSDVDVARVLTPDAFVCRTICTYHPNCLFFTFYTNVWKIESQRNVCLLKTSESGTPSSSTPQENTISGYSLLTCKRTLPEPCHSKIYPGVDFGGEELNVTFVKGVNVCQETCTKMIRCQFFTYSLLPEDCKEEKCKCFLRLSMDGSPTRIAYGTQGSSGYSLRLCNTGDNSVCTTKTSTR
Sequence of Plasma kallikrein (P03952 391-638 limits assumed): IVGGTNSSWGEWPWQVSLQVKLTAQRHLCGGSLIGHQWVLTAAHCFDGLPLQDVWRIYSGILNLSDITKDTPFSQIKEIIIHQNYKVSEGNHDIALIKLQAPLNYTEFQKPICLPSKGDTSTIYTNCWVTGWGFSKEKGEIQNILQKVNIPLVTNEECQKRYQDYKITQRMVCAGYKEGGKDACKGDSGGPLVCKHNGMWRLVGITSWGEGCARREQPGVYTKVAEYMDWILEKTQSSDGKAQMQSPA

CCOc1cccc(CNC(=O)c2cn(Cc3ccc(Cn4cc(C)cn4)cc3)nc2C(F)(F)F)c1
IC50: 2360 nM
